Data taken from ChEMBL document CHEMBL1201862, “PubChem BioAssay data set” (2004).
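These data come from cells grown in 96-well plates and exposed to compound for 48 hours at five concentrations. GI50 marks 50% less growth.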 The source made the active and inactive calls. No stated cut-off is given here; in the data, active = GI50 up to about 1.1 µM and inactive = higher.

Experiments:
Experiment in all cases: NCI tumour cell line growth inhibition, 48 h
M19-MEL = system: M19-MEL
DMS-114 = system: DMS-114
XF498 = system: XF498
HOP-18 = system: HOP-18
DMS-273 = system: DMS-273
KM-20L2 = system: KM-20L2
DLD-1 = system: DLD-1
RXF 631 = system: RXF 631
LXFL 529 = system: LXFL 529

Compound	GI50 (M19-MEL)	GI50 (DMS-114)	GI50 (XF498)	GI50 (HOP-18)	GI50 (DMS-273)	GI50 (KM-20L2)	GI50 (DLD-1)	GI50 (RXF 631)	GI50 (LXFL 529)
C=C1C(=O)OCC2C(C(=O)O)=CC3C(C)C(C)=CC123 (centres undefined)	14.7 µM (inactive)	7.69 µM (inactive)	12.5 µM (inactive)	12.2 µM (inactive)	18.5 µM (inactive)	11.9 µM (inactive)	11 µM (inactive)		
CC(=O)c1ccc2c(c1)c1c(C)c3c[n+](C)ccc3c(C)c1n2C	4.79 µM (inactive)	2.14 µM (inactive)	2.53 µM (inactive)	17.2 µM (inactive)	2.39 µM (inactive)	17.1 µM (inactive)	4.56 µM (inactive)		
O=C(/C=C/c1ccccc1O)c1cccs1	> 100 µM (inactive)		> 100 µM (inactive)	57.7 µM (inactive)	> 100 µM (inactive)	> 100 µM (inactive)	> 100 µM (inactive)	> 100 µM (inactive)	> 100 µM (inactive)
C/C(=C\c1ccccc1)C(O)C(=O)c1nc2ccc(Cl)cc2nc1O (centres undefined)	> 100 µM (inactive)	46.3 µM (inactive)	92 µM (inactive)		> 100 µM (inactive)	> 100 µM (inactive)	> 100 µM (inactive)		84.5 µM (inactive)
COc1ccc(C2=CC3CCC2C3)cc1 (centres undefined)			> 100 µM (inactive)	> 100 µM (inactive)	> 100 µM (inactive)		> 100 µM (inactive)		0.0535 µM (active)
COc1cc([C@@H]2c3cc4c(cc3[C@@H](NC(=O)c3cccc(N)c3)C3COC(=O)[C@@H]32)OCO4)cc(OC)c1O (some centres undefined)	3.41 µM (inactive)	0.968 µM (active)	1.11 µM (active)		0.117 µM (active)	2.97 µM (inactive)	7.03 µM (inactive)	0.412 µM (active)	13.1 µM (inactive)
O=C(c1ccccc1)c1c(CC(O)c2cccnc2)n(C(=O)c2ccccc2)c2ccccc12 (centres undefined)	19.7 µM (inactive)	27.7 µM (inactive)	13.6 µM (inactive)		28.2 µM (inactive)	21.3 µM (inactive)			
CC1NOC(=O)C1/N=N/c1ccccc1Cl (centres undefined)	23 µM (inactive)	34.7 µM (inactive)	27.9 µM (inactive)	35 µM (inactive)		68.4 µM (inactive)	39.4 µM (inactive)	37.1 µM (inactive)	45.5 µM (inactive)
CN(NC1OC(CO)C(O)C(O)C1O)c1ccccc1 (centres undefined)	> 100 µM (inactive)		16.4 µM (inactive)	> 100 µM (inactive)	> 100 µM (inactive)	> 100 µM (inactive)	> 100 µM (inactive)		> 100 µM (inactive)
O=C1c2ccccc2C(=O)N1CCn1nc(-c2ccccc2)cc(-c2ccccc2)c1=O	69.3 µM (inactive)	> 100 µM (inactive)		42.6 µM (inactive)	49.5 µM (inactive)	> 100 µM (inactive)	> 100 µM (inactive)	27.7 µM (inactive)	52.2 µM (inactive)
C[N+](C)(C)CC1CCc2ccccc2C1=O (centres undefined)	16 µM (inactive)	13.5 µM (inactive)	2.39 µM (inactive)		2.16 µM (inactive)	19.6 µM (inactive)	4.86 µM (inactive)		2.57 µM (inactive)
COc1cccc(-c2nccc3c(OCc4ccccc4)c(OC)c(OC)cc23)c1	> 100 µM (inactive)	35.6 µM (inactive)	> 100 µM (inactive)		27.2 µM (inactive)	> 100 µM (inactive)	7.74 µM (inactive)		5.74 µM (inactive)
O=C(O)C1Cc2[nH]c3ccccc3c2C2CCCC12 (centres undefined)	> 100 µM (inactive)	> 100 µM (inactive)	> 100 µM (inactive)		> 100 µM (inactive)	> 100 µM (inactive)	> 100 µM (inactive)		> 100 µM (inactive)
Oc1cccc2nc3cc(CN4CCOCC4)c(CN4CCOCC4)cc3nc12	25.9 µM (inactive)		> 100 µM (inactive)	59.7 µM (inactive)	54.7 µM (inactive)	48.9 µM (inactive)	61 µM (inactive)	56.4 µM (inactive)	48.1 µM (inactive)
COc1cc2ccc3c4c(OC)cc(OC)c(OC)c4c([O-])[n+](C)c3c2cc1OC	6.46 µM (inactive)	2.37 µM (inactive)	2.34 µM (inactive)	> 100 µM (inactive)	0.428 µM (active)	9.38 µM (inactive)		> 100 µM (inactive)	1.79 µM (inactive)
COc1ccc(C)cc1C1CCC(=O)O1 (centres undefined)	> 100 µM (inactive)	> 100 µM (inactive)	63.8 µM (inactive)	> 100 µM (inactive)	> 100 µM (inactive)	> 100 µM (inactive)	> 100 µM (inactive)		> 100 µM (inactive)
CC(=O)NNc1nc(C)c(C(=O)NNC(=O)C(=O)Nc2ccc(Cl)cc2)s1	> 100 µM (inactive)		> 100 µM (inactive)			> 100 µM (inactive)			34.7 µM (inactive)
CCCn1cc2c(SC)nc(SC)nc2n1		> 100 µM (inactive)	> 100 µM (inactive)	> 100 µM (inactive)	> 100 µM (inactive)		> 100 µM (inactive)		
O=C1C(=O)N(c2cc(Cl)ccc2Cl)C(=O)C(=O)C1c1nc2ccccc2o1	> 100 µM (inactive)	> 89.1 µM (inactive)	> 100 µM (inactive)	63.1 µM (inactive)	> 100 µM (inactive)	> 100 µM (inactive)	> 100 µM (inactive)	> 100 µM (inactive)	> 100 µM (inactive)
C1=CC(=NN=P(c2ccccc2)(c2ccccc2)c2ccccc2)C=C1	> 100 µM (inactive)	51.9 µM (inactive)	> 100 µM (inactive)		> 100 µM (inactive)	> 100 µM (inactive)	> 100 µM (inactive)		> 100 µM (inactive)
CN(C)/C(=N\C#N)N(Cc1ccccc1)Cc1ccccc1	> 100 µM (inactive)			> 100 µM (inactive)	> 100 µM (inactive)	> 100 µM (inactive)	43.2 µM (inactive)		56.5 µM (inactive)
C1CCN2CC3CONC3C2C1 (centres undefined)	> 100 µM (inactive)	> 100 µM (inactive)	> 100 µM (inactive)		> 100 µM (inactive)	> 100 µM (inactive)	> 100 µM (inactive)		> 100 µM (inactive)
c1ccc(N2N=C(c3ccco3)CC2c2ccco2)cc1 (centres undefined)	> 100 µM (inactive)	49.2 µM (inactive)	> 100 µM (inactive)		> 100 µM (inactive)	> 100 µM (inactive)			64.1 µM (inactive)
C#C[C@H]1CCCCCC1O (some centres undefined)	> 100 µM (inactive)	> 100 µM (inactive)	> 100 µM (inactive)	54.6 µM (inactive)	> 100 µM (inactive)	> 100 µM (inactive)	> 100 µM (inactive)	> 100 µM (inactive)	96.8 µM (inactive)
COCC1N=C(c2ccc(OC)c(OCc3ccccc3)c2OC)O[C@H]1c1ccccc1 (some centres undefined)	17.4 µM (inactive)	12.2 µM (inactive)			15.8 µM (inactive)	17.9 µM (inactive)	20.6 µM (inactive)		14.8 µM (inactive)
